From patent publication US9273003B2, “Methods of treating lymphoma and rheumatoid arthritis with cyclopentyl (2S)-cyclohexyl[({6-[3-(hydroxyamino)-3-oxopropyl]pyridin-3-yl}methyl)amino]acetate” (GlaxoSmithKline Intellectual Property Development Limited, priority 2006, dated 2016) come the findings set out here.

SMILES strings stand for the structures. A value given as a limit tells only on which side of the number the result lay.

The test system of one assay is U937 cells. The experiment in a line: U937 cell inhibition assay (WST-1 cell viability). As to conditions: Homo sapiens, U-937; U937 cells; IC50 allocated to ranges; read-out: U937 activity. The class given is cell-based. The method in brief: (§1)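 Log-phase cells seeded at 1000-2000/well, grown 24 h, then exposed to compound for 72-96 h before WST-1 viability readout. Eight concentrations (top 10 μM final, 3-fold steps), 6 replicates; % inhibition versus DMSO, IC50 by sigmoidal variable-slope fit.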
In general terms: Tetrazolium dyes change colour on reduction, which living cells bring about.

In a further assay the test system is HeLa cells. The experiment in a line: HeLa cell inhibition assay (sulphorhodamine B cell viability). The assay is classed as cell-based. As to conditions: Homo sapiens, IC50 allocated to ranges. As to the method:
HeLa cells growing in log phase were harvested and seeded at 1000 cells/well (200 μl final volume) into 96-well tissue culture plates. Following 24 h of cell growth cells were treated with compounds (final concentration of 20 μM). Plates were then re-incubated for a further 72 h before a sulphorhodamine B (SRB) cell viability assay was conducted according to the methodology described by Skehan et al, J. Natl. Canc. Inst., 1990, 82, 1107-1112.
Data were expressed as a percentage inhibition of the control, measured in the absence of inhibitor, as follows:— % inhibition=100−[(S^i/S^o)×100] where S^i is the signal in the presence of inhibitor and S^o is the signal in the presence of DMSO.
IC50 values were determined by non-linear regression analysis, after fitting the results of eight data points to the equation for sigmoidal dose response with variable slope (% activity against log concentration of Compound), using Graphpad Prism software.

The next assay relates to HUT78 cells. Description: HUT cell inhibition assay (WST-1 cell viability). The class given is cell-based. To be noted: Homo sapiens; HUT78 cells; IC50 allocated to ranges; read-out: HUT activity. The procedure, abridged:
as §1

The target of assay [1] is histone deacetylase activity (HeLa nuclear extract). The experiment in a line: HDAC fluorescent activity assay (Fluor de Lys, Biomol). The assay is classed as biochemical. As to conditions: IC50 allocated to ranges, read-out: HDAC activity. The procedure, abridged:
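HeLa nuclear extract as HDAC source incubated with acetyl-lysine Fluor de Lys substrate ± inhibitor; developer then releases fluorophore from deacetylated substrate. Activity as % of vehicle control after no-enzyme background subtraction; IC50 from eight-point variable-slope sigmoidal fit.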

`O=C(/C=C/c1cccc(C(=O)N[C@H](C(=O)OC2CCCC2)C2CCCCC2)c1)NO` [Example 5, Cyclopentyl (2S)-cyclohexyl({3-[(1E)-3-(hydroxyamino)-3-oxoprop-1-en-1-yl]benzoyl}amino)acetate]: the IC50 in the assay with U937 cells was 331 to 3300 nM; in the assay on HeLa cells, 331 to 3300 nM; with HUT78 cells it was 331 to 3300 nM; in assay [1], less than 100 nM.

Turning to `O=C(/C=C/c1cccc(CN[C@H](C(=O)OC2CCCC2)C2CCCCC2)c1)NO` [Example 12, Cyclopentyl (2S)-cyclohexyl({3-[(1E)-3-(hydroxyamino)-3-oxoprop-1-en-1-yl]benzyl}amino)acetate], the IC50 was 331 to 3300 nM in the assay on U937 cells, more than 3300 nM with HeLa cells, 331 to 3300 nM in the assay on HUT78 cells and 101 to 1000 nM in assay [1].

Consider `CC(C)C[C@H](NCc1ccc(CCC(=O)NO)cc1)C(=O)OCCN1CCOCC1` [Example 35, 2-Morpholin-4-ylethyl N-{4-[3-(hydroxyamino)-3-oxopropyl]benzyl}-L-leucinate], for which the IC50 with U937 cells is less than 330 nM; in the assay on HeLa cells, more than 3300 nM; in the assay with HUT78 cells, 331 to 3300 nM; in assay [1], more than 1000 nM.

On to `CC(C)C[C@H](NS(=O)(=O)c1cccc(/C=C/C(=O)NO)c1)C(=O)OC1CCCC1` [Example 3, Cyclopentyl N-({3-[(1E)-3-(hydroxyamino)-3-oxoprop-1-en-1-yl]phenyl}sulfonyl)-L-leucinate], for which the IC50 with U937 cells is 331 to 3300 nM; in the assay on HeLa cells, 331 to 3300 nM; in the assay on HUT78 cells it was 331 to 3300 nM; in assay [1], less than 100 nM.

In the case of `O=C(/C=C/c1ccc(CN[C@H](C(=O)OC2Cc3ccccc3C2)C2CCCCC2)cn1)NO` [Example 55, 2,3-Dihydro-1H-inden-2-yl (2S)-cyclohexyl[({6-[(1E)-3-(hydroxyamino)-3-oxoprop-1-en-1-yl]pyridin-3-yl}methyl)amino]acetate], the IC50 in the assay with U937 cells is less than 330 nM; in the assay with HeLa cells, 331 to 3300 nM; with HUT78 cells it was less than 330 nM; in assay [1], less than 100 nM.

Take `O=C(/C=C/c1ccc(C(=O)N[C@H](C(=O)OC2CCCC2)C2CCCCC2)cc1)NO` [Example 7, Cyclopentyl (2S)-cyclohexyl({4-[(1E)-3-(hydroxyamino)-3-oxoprop-1-en-1-yl]benzoyl}amino)acetate]: the IC50 in the assay with U937 cells is 331 to 3300 nM; with HeLa cells, more than 3300 nM; in the assay on HUT78 cells, 331 to 3300 nM; in assay [1], 101 to 1000 nM.

`CC(C)C[C@H](NCc1ccc(CCC(=O)NO)cc1)C(=O)OC1Cc2ccccc2C1` [Example 37, 2,3-Dihydro-1H-inden-2-yl N-{4-[3-(hydroxyamino)-3-oxopropyl]benzyl}-L-leucinate]: the IC50 with U937 cells is less than 330 nM; in the assay on HeLa cells it was 331 to 3300 nM; with HUT78 cells, less than 330 nM; in assay [1] it was 101 to 1000 nM.

On to `O=C(/C=C/c1cccc(C(=O)N[C@H](C(=O)OC2CCCC2)c2ccccc2)c1)NO` [Example 6, Cyclopentyl (2S)-({3-[(1E)-3-(hydroxyamino)-3-oxoprop-1-en-1-yl]benzoyl}amino)(phenyl)acetate], for which the IC50 in the assay on U937 cells was 331 to 3300 nM; in the assay with HeLa cells, more than 3300 nM; in the assay on HUT78 cells it was 331 to 3300 nM; in assay [1], 101 to 1000 nM.

As for `CC(C)C[C@H](NC(=O)c1ccc(/C=C/C(=O)NO)cc1)C(=O)OC1CCCC1` [Example 8, Cyclopentyl N-{4-[(1E)-3-(hydroxyamino)-3-oxoprop-1-en-1-yl]benzoyl}-L-leucinate], the IC50 lay in the range of 331 to 3300 nM with U937 cells, 331 to 3300 nM in the assay with HeLa cells, 331 to 3300 nM with HUT78 cells and 101 to 1000 nM in assay [1].

As for `CC(C)C[C@H](NCc1ccc(/C=C/C(=O)NO)cc1)C(=O)OC1CCCC1` [Example 15, Cyclopentyl N-{4-[(1E)-3-(hydroxyamino)-3-oxoprop-1-en-1-yl]benzyl}-L-leucinate], the IC50 is less than 330 nM with U937 cells, 331 to 3300 nM in the assay with HeLa cells, less than 330 nM in the assay on HUT78 cells and less than 100 nM in assay [1].

On to `CC1CCCC1OC(=O)[C@@H](NCc1ccc(/C=C/C(=O)NO)cc1)C1CCCCC1` (stereo partly drawn) [Example 27, 2-Methylcyclopentyl (2S)-cyclohexyl({4-[(1E)-3-(hydroxyamino)-3-oxoprop-1-en-1-yl]benzyl}amino)acetate], for which the IC50 in the assay on U937 cells is less than 330 nM; in the assay on HeLa cells, 331 to 3300 nM; in the assay on HUT78 cells, 331 to 3300 nM; in assay [1], 101 to 1000 nM.

Take `O=C(/C=C/c1cccc(CNCc2ccc(CN[C@H](C(=O)OC3CCCC3)C3CCCCC3)cc2)c1)NO` [Example 73, Cyclopentyl (2S)-cyclohexyl({4-[({3-[(1E)-3-(hydroxyamino)-3-oxoprop-1-en-1-yl]benzyl}amino)methyl]benzyl}amino)acetate]: the IC50 lay in the range of 331 to 3300 nM in the assay on U937 cells, 331 to 3300 nM in the assay on HeLa cells, 331 to 3300 nM in the assay with HUT78 cells and 101 to 1000 nM in assay [1].

Regarding `O=C(/C=C/c1ccc(CN[C@H](C(=O)OC2CC3CCC2C3)C2CCCCC2)cn1)NO` (stereo partly drawn) [Example 58, Bicyclo[2.2.1]hept-2-yl (2S)-cyclohexyl[({6-[(1E)-3-(hydroxyamino)-3-oxoprop-1-en-1-yl]pyridin-3-yl}methyl)amino]acetate], the IC50 was less than 330 nM in the assay with U937 cells, 331 to 3300 nM in the assay with HeLa cells, less than 330 nM with HUT78 cells and less than 100 nM in assay [1].

As for `O=C(/C=C/c1ccc(CN2CCC(N[C@H](C(=O)OC3CCCC3)C3CCCCC3)CC2)cc1)NO` [Example 80, Cyclopentyl (2S)-cyclohexyl[(1-{4-[(1E)-3-(hydroxyamino)-3-oxoprop-1-en-1-yl]benzyl}piperidin-4-yl)amino]acetate], the IC50 in the assay on U937 cells was less than 330 nM; in the assay on HeLa cells, 331 to 3300 nM; with HUT78 cells it was less than 330 nM; in assay [1] it was 101 to 1000 nM.

As for `CC1CCC(OC(=O)[C@@H](NCc2ccc(/C=C/C(=O)NO)cc2)C2CCCCC2)C1` (stereo partly drawn) [Example 28, 3-Methylcyclopentyl (2S)-cyclohexyl({4-[(1E)-3-(hydroxyamino)-3-oxoprop-1-en-1-yl]benzyl}amino)acetate], the IC50 in the assay on U937 cells is less than 330 nM; in the assay on HeLa cells, 331 to 3300 nM; in the assay on HUT78 cells it was 331 to 3300 nM; in assay [1], 101 to 1000 nM.

Consider `O=C(/C=C/c1cccc(CN[C@H](C(=O)OC2CCCC2)c2ccccc2)c1)NO` [Example 13, Cyclopentyl (2S)-({3-[(1E)-3-(hydroxyamino)-3-oxoprop-1-en-1-yl]benzyl}amino)(phenyl)acetate], for which the IC50 in the assay with U937 cells is more than 3300 nM; with HeLa cells, more than 3300 nM; in the assay on HUT78 cells, 331 to 3300 nM; in assay [1], more than 1000 nM.

With `CCOC(=O)[C@@H](NCc1ccc(/C=C/C(=O)NO)cc1)C1CCCCC1` [Example 21, Ethyl (2S)-cyclohexyl({4-[(1E)-3-(hydroxyamino)-3-oxoprop-1-en-1-yl]benzyl}amino)acetate], the IC50 is less than 330 nM in the assay with U937 cells, 331 to 3300 nM in the assay on HeLa cells, less than 330 nM in the assay on HUT78 cells and less than 100 nM in assay [1].

For the compound `CC(C)(C)OC[C@H](NCCCOc1ccc(/C=C/C(=O)NO)cc1)C(=O)OC1CCCC1` [Example 10, Cyclopentyl O-tert-butyl-N-(3-{4-[(1E)-3-(hydroxyamino)-3-oxoprop-1-en-1-yl]phenoxy}propyl)-L-serinate], the IC50 in the assay with U937 cells was 331 to 3300 nM; in the assay with HeLa cells, 331 to 3300 nM; in the assay on HUT78 cells it was 331 to 3300 nM; in assay [1] it was 101 to 1000 nM.
